The assay has as its system PDE4. As to the kind of experiment: Evaluation of PDE4 inhibitory activity, scintillation proximity assay. Type of assay: biochemical. The note with it: scintillation proximity assay; class symbols of Evaluation 1; read-out: PDE4 Inhibitory Activity (concentration for the inhibition rate of 50%, IC50), Evaluation 1. A digest of the protocol: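 IC50 was derived from inhibition curves, referenced to an enzyme-free blank and a DMSO-only control. Compound, PDE4 preparation and tritiated cAMP reacted 120 min at RT in Tris-HCl buffer (pH 7.4) with MgCl2, EGTA and BSA; YSi-SPA beads with ZnSO4 bound product before scintillation counting.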
In general terms: Scintillation proximity formats need no separation of bound from free tracer.

For 26 compounds, IC50 results are on record in patent US12239643B2, “Therapeutic agent for inflammatory diseases, autoimmune diseases, fibrotic diseases, and cancer diseases” (MEIJI SEIKA PHARMA CO., LTD., priority 2018, dated 2025).

Molecules are shown by their SMILES. Some results are limits rather than exact numbers.

As for `CC(O)c1cc(-c2nccs2)c2oc(N3CC4CCC(C3)N4)nc2c1` (centres unmarked) [Example 106, 1-(2-(3,8-Diazabicyclo[3.2.1]octan-3-yl)-7-(thiazol-2-yl)benzo[d]oxazol-5-yl)ethan-1-ol], the IC50 was below 100 nM.
As to `CC(O)c1cc(-c2nccs2)c2oc(N3CC4CC(C3)N4)nc2c1` (centres unmarked) [Example 107, 1-(2-(3,6-Diazabicyclo[3.1.1]heptan-3-yl)-7-(thiazol-2-yl)benzo[d]oxazol-5-yl)ethan-1-ol], the IC50 fell in the range of 100 to 1000 nM.
Regarding `CC(=O)c1cc(-c2nccs2)c2oc(N3CC4CCC(C3)N4)nc2c1` [Example 108, 1-(2-(3,8-Diazabicyclo[3.2.1]octan-3-yl)-7-(thiazol-2-yl)benzo[d]oxazol-5-yl)ethan-1-one], the IC50 was below 100 nM.
Turning to `CC(=O)c1cc(-c2nccs2)c2oc(N3CC4CC(C3)N4)nc2c1` [Example 109, 1-(2-(3,6-Diazabicyclo[3.1.1]heptan-3-yl)-7-(thiazol-2-yl)benzo[d]oxazol-5-yl)ethan-1-one], the IC50 is below 100 nM.
On to `COC(C)c1cc(-c2nccs2)c2oc(N3CC4CCC(C3)N4)nc2c1` (centres unmarked) [Example 110, 2-(3,8-Diazabicyclo[3.2.1]octan-3-yl)-5-(1-methoxyethyl)-7-(thiazol-2-yl)benzo[d]oxazole], for which the IC50 was below 100 nM.
`COC(C)c1cc(-c2nccs2)c2oc(N3CC4CC(C3)N4)nc2c1` (centres unmarked) [Example 111, 2-(3,6-Diazabicyclo[3.1.1]heptan-3-yl)-5-(1-methoxyethyl)-7-(thiazol-2-yl)benzo[d]oxazole]: the IC50 is below 100 nM.
As for `CCOC(=O)c1ccc(-c2nccs2)c2oc(N3CC4CCC(C3)N4)nc12` [Example 112, Ethyl 2-(3,8-diazabicyclo[3.2.1]octan-3-yl)-7-(thiazol-2-yl)benzo[d]oxazole-4-carboxylate], the IC50 is below 100 nM.
Take `CCOC(=O)c1ccc(-c2nccs2)c2oc(N3CC4CC(C3)N4)nc12` [Example 113, ethyl 2-(3,6-diazabicyclo[3.1.1]heptan-3-yl)-7-(thiazol-2-yl)benzo[d]oxazole-4-carboxylate]: the IC50 is below 100 nM.
`CCOC(=O)c1ccc(-c2nccs2)c2oc(N3CC4CCCC(C3)N4)nc12` [Example 114, Ethyl 2-(3,9-diazabicyclo[3.3.1]nonan-3-yl)-7-(thiazol-2-yl)benzo[d]oxazole-4-carboxylate]: the IC50 is below 100 nM.
To `CN(C)C(=O)c1ccc(-c2nccs2)c2oc(N3CC4CCC(C3)N4)nc12` [Example 115, 2-(3,8-Diazabicyclo[3.2.1]octan-3-yl)-N,N-dimethyl-7-(thiazol-2-yl)benzo[d]oxazole-4-carboxamide] belongs below 100 nM.
Take `O=C(c1ccc(-c2nccs2)c2oc(N3CC4CCC(C3)N4)nc12)N1CCOCC1` [Example 116, (2-(3,8-Diazabicyclo[3.2.1]octan-3-yl)-7-(thiazol-2-yl)benzo[d]oxazol-4-yl) (morpholino)methanone]: the IC50 was below 100 nM.
For the compound `O=C(c1ccc(-c2nccs2)c2oc(N3CC4CCC(C3)N4)nc12)N1CCCCC1` [Example 117, (2-(3,8-Diazabicyclo[3.2.1]octan-3-yl)-7-(thiazol-2-yl)benzo[d]oxazol-4-yl)(piperidin-1-yl)methanone], the IC50 is below 100 nM.
In the case of `OC(c1ccc(-c2nccs2)c2oc(N3CC4CC(C3)N4)nc12)C(F)(F)F` (centres unmarked) [Example 121, 1-(2-(3,6-Diazabicyclo[3.1.1]heptan-3-yl)-7-(thiazol-2-yl)benzo[d]oxazol-4-yl)-2,2,2-trifluoroethan-1-ol], the IC50 was below 100 nM.
As to `COC(c1ccc(-c2nccs2)c2oc(N3CC4CC(C3)N4)nc12)C(F)(F)F` (centres unmarked) [Example 122, 2-(3,6-Diazabicyclo[3.1.1]heptan-3-yl)-7-(thiazol-2-yl)-4-(2,2,2-trifluoro-1-methoxyethyl)benzo[d]oxazole], the IC50 is below 100 nM.
Take `COC(c1ccc(-c2nccs2)c2oc(N3CC4CC(C3)N4)nc12)C(F)(F)F` (centres unmarked) [Example 123, 2-(3,6-Diazabicyclo[3.1.1]heptan-3-yl)-7-(thiazol-2-yl)-4-(2,2,2-trifluoro-1-methoxyethyl)benzo[d]oxazole]: the IC50 was below 100 nM.
As to `CC(O)c1ccc(-c2nccs2)c2oc(N3CC4CCC(C3)N4)nc12` (centres unmarked) [Example 124, 1-(2-(3,8-Diazabicyclo[3.2.1]octan-3-yl)-7-(thiazol-2-yl)benzo[d]oxazol-4-yl)ethan-1-ol], the IC50 is below 100 nM.
As for `OC(c1ccc(-c2nccs2)c2oc(N3CC4CC(C3)N4)nc12)C(F)F` (centres unmarked) [Example 125, 1-(2-(3,6-Diazabicyclo[3.1.1]heptan-3-yl)-7-(thiazol-2-yl)benzo[d]oxazol-4-yl)-2,2-difluoroethan-1-ol], the IC50 is below 100 nM.
Regarding `CC(O)(c1ccc(-c2nccs2)c2oc(N3CC4CC(C3)N4)nc12)C(F)F` (centres unmarked) [Example 126, 2-(2-(3,6-Diazabicyclo[3.1.1]heptan-3-yl)-7-(thiazol-2-yl)benzo[d]oxazol-4-yl)-1,1-difluoropropan-2-ol], the IC50 is below 100 nM.
Regarding `CC(C)(O)COC(c1ccc(-c2nccs2)c2oc(N3CC4CC(C3)N4)nc12)C(F)F` (centres unmarked) [Example 127, 1-(1-(2-(3,6-Diazabicyclo[3.1.1]heptan-3-yl)-7-(thiazol-2-yl)benzo[d]oxazol-4-yl)-2,2-difluoroethoxy)-2-methylpropan-2-ol], the IC50 is below 100 nM.
To `OC(c1ccc(-c2nccs2)c2oc(N3CC4CCC(C3)N4)nc12)C(F)F` (centres unmarked) [Example 128, 1-(2-(3,8-Diazabicyclo[3.2.1]octan-3-yl)-7-(thiazol-2-yl)benzo[d]oxazol-4-yl)-2,2-difluoroethan-1-ol] belongs below 100 nM; to `CC(O)(c1ccc(-c2nccs2)c2oc(N3CC4CCC(C3)N4)nc12)C(F)F` (centres unmarked) [Example 129, 2-(2-(3,8-Diazabicyclo[3.2.1]octan-3-yl)-7-(thiazol-2-yl)benzo[d]oxazol-4-yl)-1,1-difluoropropan-2-ol], below 100 nM; to `COC(c1ccc(-c2nccs2)c2oc(N3CC4CC(C3)N4)nc12)C(F)F` (centres unmarked) [Example 130, 2-(3,6-Diazabicyclo[3.1.1]heptan-3-yl)-4-(2,2-difluoro-1-methoxyethyl)-7-(thiazol-2-yl)benzo[d]oxazole], below 100 nM.
To `COC(c1ccc(-c2nccs2)c2oc(N3CC4CCC(C3)N4)nc12)C(F)F` (centres unmarked) [Example 131, 2-(3,8-Diazabicyclo[3.2.1]octan-3-yl)-4-(2,2-difluoro-1-methoxyethyl)-7-(thiazol-2-yl)benzo[d]oxazole] belongs below 100 nM; to `OCc1ccc(-c2nccs2)c2oc(N3CC4CCC(C3)N4)nc12` [Example 132, (2-(3,8-Diazabicyclo[3.2.1]octan-3-yl)-7-(thiazol-2-yl)benzo[d]oxazol-4-yl)methanol], below 100 nM; to `OCc1ccc(-c2nccs2)c2oc(N3CC4CC(C3)N4)nc12` [Example 133, (2-(3,6-Diazabicyclo[3.1.1]heptan-3-yl)-7-(thiazol-2-yl)benzo[d]oxazol-4-yl)methanol], below 100 nM.
To `OCc1ccc(-c2nccs2)c2oc(N3CC4CCCC(C3)N4)nc12` [Example 134, (2-(3,9-Diazabicyclo[3.3.1]nonan-3-yl)-7-(thiazol-2-yl)benzo[d]oxazol-4-yl)methanol] belongs below 100 nM.
